Results: patent US7145043B2, “Non-Hazardous oxidative neutralization of aldehydes” (Ethicon, Inc., priority 2003, dated 2006)

Tested on: Fathead Minnow
Details: 750 mg/L concentration, 48 hours
Source text: CALIFORNIA CODE REGS (“CCR”) Title 22-Fathead Minnow Hazardous Waste Screen Bioassay.

## OO [Hydrogen peroxide (5%), Hydrogen peroxide]
  survival: 0%
